The term IC50 denotes the concentration needed to halve the response being measured.

The target in this test is Epidermal growth factor receptor (Homo sapiens, UniProt P00533). The experiment in a line: Inhibition of recombinant human GST-tagged EGFR cytoplasmic domain (668 to 1210 residues) expressed in baculovirus by Z'-LYTE assay.
Epidermal growth factor receptor, sequence (P00533 whole entry, the tested form may be a part): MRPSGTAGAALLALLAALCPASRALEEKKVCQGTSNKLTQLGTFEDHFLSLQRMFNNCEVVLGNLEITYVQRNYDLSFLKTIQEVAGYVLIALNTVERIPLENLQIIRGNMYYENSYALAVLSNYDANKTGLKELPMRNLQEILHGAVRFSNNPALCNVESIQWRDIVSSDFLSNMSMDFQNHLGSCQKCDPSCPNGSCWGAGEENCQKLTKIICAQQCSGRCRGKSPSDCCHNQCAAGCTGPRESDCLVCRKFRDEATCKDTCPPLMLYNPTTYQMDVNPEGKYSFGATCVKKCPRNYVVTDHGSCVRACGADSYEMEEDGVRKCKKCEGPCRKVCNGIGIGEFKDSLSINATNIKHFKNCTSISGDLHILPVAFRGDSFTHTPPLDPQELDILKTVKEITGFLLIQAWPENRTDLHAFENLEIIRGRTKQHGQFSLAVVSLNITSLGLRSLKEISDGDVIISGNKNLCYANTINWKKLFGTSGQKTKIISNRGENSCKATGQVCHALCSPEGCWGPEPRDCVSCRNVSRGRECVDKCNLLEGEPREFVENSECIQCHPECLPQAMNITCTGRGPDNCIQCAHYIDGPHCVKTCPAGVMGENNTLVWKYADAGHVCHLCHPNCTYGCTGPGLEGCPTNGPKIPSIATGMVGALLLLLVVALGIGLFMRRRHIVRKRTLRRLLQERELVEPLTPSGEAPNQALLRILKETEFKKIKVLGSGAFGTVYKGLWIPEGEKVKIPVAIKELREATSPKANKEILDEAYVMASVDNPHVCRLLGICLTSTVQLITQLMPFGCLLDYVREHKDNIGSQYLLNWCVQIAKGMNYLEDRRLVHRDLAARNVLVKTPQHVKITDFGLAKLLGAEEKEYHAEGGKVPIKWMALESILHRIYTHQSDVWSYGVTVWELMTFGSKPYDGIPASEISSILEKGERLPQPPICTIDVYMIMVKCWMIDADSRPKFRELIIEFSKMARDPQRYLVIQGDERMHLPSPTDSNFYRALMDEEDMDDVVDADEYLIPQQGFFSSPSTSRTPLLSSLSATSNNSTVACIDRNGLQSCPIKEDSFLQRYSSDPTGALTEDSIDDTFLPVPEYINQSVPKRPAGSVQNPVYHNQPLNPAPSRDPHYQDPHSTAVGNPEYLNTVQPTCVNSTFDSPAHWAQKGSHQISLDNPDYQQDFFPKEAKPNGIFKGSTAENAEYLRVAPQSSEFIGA
`COc1ccc(-c2cc3c(N[C@H](CCO)c4ccccc4)ncnc3o2)cc1`: the IC50 was found to be 4 nM.

Take `COc1ccc(-c2cc3c(N[C@H](C)c4cccc(F)c4)ncnc3o2)cc1`: the IC50 was determined as 24 nM. As for `C[C@@H](Nc1ncnc2oc(-c3ccc(F)cc3)cc12)c1ccccc1`, the IC50 is 13 nM. Take `COc1ccc(-c2cc3c(N[C@@H](C)CO)ncnc3o2)cc1`: the IC50 is greater than 100 nM. The value for `C[C@@H](Nc1ncnc2oc(-c3cccc(O)c3)cc12)c1ccccc1` was 4.6 nM; that for `COc1ccc(-c2cc3c(N[C@H](C)c4ccc(F)cc4)ncnc3o2)cc1` was 27 nM. Regarding `C[C@@H](Nc1ncnc2oc(-c3ccc(C#N)cc3)cc12)c1ccccc1`, the IC50 stood at 44 nM. To `COc1ccc(-c2cc3c(N[C@H](C)c4ccccc4F)ncnc3o2)cc1` belongs 24 nM; to `COc1ccccc1-c1cc2c(N[C@H](C)c3ccccc3)ncnc2o1`, 4 nM; to `c1ccc(CNc2ncnc3oc(-c4ccccc4)cc23)cc1`, 93 nM.

In the case of `C[C@@H](Nc1ncnc2oc(-c3ccc(Br)cc3)cc12)c1ccccc1`, the IC50 worked out at 56 nM.

Turning to `COc1cccc(-c2cc3c(N[C@H](C)c4ccccc4)ncnc3o2)c1`, the IC50 turned out to be 7 nM. To `C[C@@H](Nc1ncnc2oc(-c3ccccc3)cc12)c1ccccc1` belongs 11 nM; to `C=Cc1ccc(-c2cc3c(N[C@H](C)c4ccccc4)ncnc3o2)cc1`, 29 nM. On to `COc1ccc(-c2cc3c(NCc4ccccc4)ncnc3o2)cc1`, for which the IC50 was 74 nM. The value for `COc1ccc(-c2cc3c(N[C@H](C)C4CCCCC4)ncnc3o2)cc1` was greater than 100 nM; that for `CC[C@@H](Nc1ncnc2oc(-c3ccc(OC)cc3)cc12)c1ccccc1` was 22 nM. In the case of `COc1ccc(-c2cc3c(N[C@@H](C)c4ccccc4)ncnc3o2)cc1`, the IC50 was greater than 1000 nM. The value for `COC[C@@H](Nc1ncnc2oc(-c3ccccc3)cc12)c1ccccc1` was 28 nM. To `C[C@@H](Nc1ncnc2oc(-c3ccc(NCCN4CCOCC4)cc3)cc12)c1ccccc1` belongs 1.1 nM; to `C[C@@H](Nc1ncnc2oc(-c3ccc(O)cc3)cc12)c1ccccc1`, 1.5 nM.

Consider `COc1ccc(-c2cc3c(N[C@H](C)c4ccccc4)ncnc3o2)cc1`, for which the IC50 stood at 5.3 nM. On to `COc1ccc(-c2cc3c(NC(CC(N)=O)c4ccccc4)ncnc3o2)cc1` (racemic), for which the IC50 stood at 22 nM.

(Values after ChEMBL document CHEMBL3856204, “Chiral 6-aryl-furo[2,3-d]pyrimidin-4-amines as EGFR inhibitors” (Eur J Med Chem, 2016).)
